Experimental data: patent US7291341B2, “Stresscopins and their uses” (The Board of Trustees of the Leland Stanford Junior …, priority 2000, dated 2007)
Ends that are not written are not given here.

Key:
[1] = test system: cultured rat anterior pituitary cells; assay: ACTH release by cultured anterior pituitary cells in vitro; type: cell-based; conditions: hormones 1 nM, 2 h at 37° C., FIG. 4a
Method: (§1) FIG. 4. […] ACTH contents in culture media and serum were determined using a radioimmunoassay. For in vivo studies, male rats were injected i.p. with test peptides (2 nmoles/kg B.W.) and sacrificed 30 mm later. Data are mean SEM (N=4). FIG. 4c. Anti-edema response regulated by stresscopins. Stresscopin 1 (20 nmoles/kg), stresscopin 2 (100 nmoles/kg), and related hormones (20 nmoles/kg) suppress heat-induced paw edema formation in anaesthetized rats (N=6). FIG. 4d. Cumulative food intake in mice treated with stresscopin 1 (left panel, N=6) and stresscopin 2 (right panel, N=4) peptides and other hormones at 2, 4, and 8 h after treatment. FIG. 4e. Reduction of gastric emptying by stresscopin 1 (blank bars, 8 nmoles/kg; hatched bars, 80 nmoles/kg), stresscopin 2 (blank bars, 80 nmoles/kg; hatched bars, 200 nmoles/kg), and related hormones (blank bars, 8 nmoles/kg; hatched bars, 80 nmoles/kg) at 2 h after hormone treatment (N=6). The rates of gastric emptying were calculated by the formula (wet weight of stomach at 2 h after treatment/wet weight of stomach in fed animals sacrificed at 0 h). SCP1 is stresscopin 1; SCP2 is stresscopin 2; UCN is urocortin; SCP1 (11-43) is truncated stresscopin 1 with the first 10 amino acids deleted.
(§2) In Vivo and in Vitro assay of pituitary ACTH releasing activity. Anterior pituitaries were obtained from 6-week-old male Sprague-Dawley rats. […]

[2] = test system: heat-induced paw edema in anaesthetized rats; assay: Heat-induced paw edema formation in anaesthetized rats; type: in vivo, rat; conditions: i.p., FIG. 4c
Method: as §1
Effects on heat-induced paw edema formation in anaesthetized rats. The anti-inflammatory effect of stresscopin and related peptides were assayed using an established model (Turnbull et al. (1996) Euro. J. Pharmacol. 303:213-216). Briefly, 5-week-old male Sprague-Dawley rats were injected with […] of the testing peptide and anaesthetized with ketamine (100 mg/Kg). Thirty min. later, paw edema was induced following a one minute exposure to hot water at 58° C. The animals were sacrificed 30 min later. Both paws were removed at the ankle joint and weighed. The degree of edema was estimated as the differences in weight gain between the heated and unheated paw divided by the weight of the unheated paw.

recombinant CRHR2 = assay: cAMP production by 293T cells transfected with recombinant CRHR2 (two isoforms); type: cell-based; conditions: for cAMP production mediated by recombinant CRHR2: 293T cells transiently transfected, two isoforms of CRHR2 (FIGS. 3c-3d)
Method: (§3) FIG. 3. […] Hormonal stimulation of cAMP production by FIG. 3a. CRHR2-containing rat cardiac A7r5 cells, FIG. 3b. CRHR1-containing human retinoblastoma Y79 cells, FIG. 3c. recombinant CRHR2, FIG. 3d. recombinant CRHR2 and, FIG. 3e. recombinant CRHR1. Cells incubated with the test peptide or vehicle were harvested at 16 h after treatment and heated to 95° C. for 5 mm to inactivate phosphodiesterase activity before cAMP measurement. FIG. 3f. […] Data are the mean SEM (N=4). SCP1-0.1, stresscopin 1 (0.1 nM); SCP1, stresscopin 1 (1 nM); SCP1(2-43), truncated stresscopin 1 with the first amino acid deleted; SCP1 (3-43), truncated stresscopin 1 with 2-amino-acid deletion; SCP1 (4-43), truncated stresscopin 1 with 3-amino-acid deletion; SCP1 (5-43), truncated stresscopin 1 with 4-amino-acid deletion; SCP1 (6-43), truncated stresscopin 1 with 5-amino-acid deletion; SCP1-NA-0.1, full-length stresscopin 1 devoid of amidation at the C-terminus (0.1 nM); SCP1-NA, full-length stresscopin 1 devoid of amidation at the C-terminus (1 nM); UCN, urocortin. FIGS. 3g and 3h. […] Data are mean SEM (N=3).
(§4) The receptor cDNA fragments were subcloned into the pcDNA3.1/Zeo vector with a prolactin signal peptide for secretion and triple FLAG/M1 epitope cassette upstream of the multiple cloning site. […] For the estimation of adenylate cyclase activation by stresscopin and related hormones, transfected cells were seeded at a concentration of 100,000 cell/well in 48 well culture plates in DMEM/F12 medium containing 0.1% BSA and 2.5mM IBMX for 16 h. Contents of cAMP in whole cell lysate were determined using a cAMP radioimmunoassay.

[3] = test system: ACTH release in intact male rats; assay: ACTH secretion in vivo; set-up: species or system rat; conditions: i.p. 2 nmoles/kg, 30 min, FIG. 4b
Method: as §1, §2

fasting mice = assay: Food intake and body weight in food-restricted mice; type: in vivo; conditions: for cumulative food intake: i.p., fasting mice, 2, 4 and 8 h after treatment, FIG. 4d; for Average body weight change/mouse / Average food intake/mouse: fasted animals, 2 h after treatment, N = 5
Method: as §1
Food intake and body weight in food-restricted mice. Six week-old male mice (20-25 g b.w.) of the inbreed Balb/C strain were housed individually in a regulated environment with 12L/12D light cycle. Before feeding tests, mice were deprived of food for 16 h with free access to water and injected with testing reagents i.p. at 10 AM the following day. Food intake was measured by placing preweighed pellets in the cage and weighing the uneaten pellets at 2, 4 and 8 h after injection. Body weight was also monitored at 0, 2, 4, and 8 h.

[4] = target: T1, CRHR2-containing rat cardiac A7r5 cells (Rattus norvegicus, UniProt P47866); assay: cAMP production in CRHR2-containing rat cardiac A7r5 cells; type: cell-based; conditions: harvested 16 h after treatment (FIG. 3a)
T1 construct: cells constitutively expressing CRH receptors; host or cells: A7r5 (rat)
Method: as §3, §4

[5] = test system: gastric emptying in food-restricted mice; assay: Gastric emptying in food-restricted mice; type: in vivo; conditions: i.p., 2 h after hormone treatment, FIG. 4e
Method: as §1
Effects on gastric emptying in food-restricted mice. To study the effects on gastric emptying, mice were deprived of food for 16 h with free access to water. The fasted mice were then given free access to preweighed pellets for 90 min. and were injected i.p. with different hormones or saline. The mice were deprived of food again after i.p. injection and sacrificed by cervical dislocation at 2 h. after injection. The stomach was excised at point of the pylorus and cardia before determination of its wet weight. Gastric emptying was calculated by comparison with stomach weight of control mice sacrificed at 0 h. following injection. See, Asakawa, A. et al. (1999) Gastroenterology 116:1287-1292.

[6] = target: T2, CRHR1-containing human retinoblastoma Y79 cells (Homo sapiens, UniProt P34998); assay: cAMP production in CRHR1-containing human retinoblastoma Y79 cells; type: cell-based; conditions: harvested 16 h after treatment (FIG. 3b)
T2 construct: cells constitutively expressing CRH receptors; host or cells: Y79 (human retinoblastoma)
T2 sequence (P34998 24-415): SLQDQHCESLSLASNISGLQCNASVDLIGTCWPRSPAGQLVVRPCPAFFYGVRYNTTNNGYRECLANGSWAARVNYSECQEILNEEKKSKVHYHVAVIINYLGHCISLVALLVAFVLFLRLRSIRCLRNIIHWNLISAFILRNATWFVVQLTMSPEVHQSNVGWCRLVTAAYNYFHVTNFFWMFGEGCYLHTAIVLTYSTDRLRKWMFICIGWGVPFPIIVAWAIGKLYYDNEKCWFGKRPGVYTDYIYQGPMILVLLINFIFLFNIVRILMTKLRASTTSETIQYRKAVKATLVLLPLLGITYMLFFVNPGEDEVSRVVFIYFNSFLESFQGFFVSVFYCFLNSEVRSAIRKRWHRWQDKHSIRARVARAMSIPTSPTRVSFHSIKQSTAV
Method: (§5) CRHR1-containing human retinoblastoma Y79 cells, FIG. 3c. recombinant CRHR2, FIG. 3d. recombinant CRHR2 and, FIG. 3e. recombinant CRHR1. Cells incubated with the test peptide or vehicle were harvested at 16 h after treatment and heated to 95° C. for 5 mm to inactivate phosphodiesterase activity before cAMP measurement. […] Data are the mean SEM (N=4). SCP1-0.1, stresscopin 1 (0.1 nM); SCP1, stresscopin 1 (1 nM); SCP1(2-43), truncated stresscopin 1 with the first amino acid deleted; SCP1 (3-43), truncated stresscopin 1 with 2-amino-acid deletion; SCP1 (4-43), truncated stresscopin 1 with 3-amino-acid deletion; SCP1 (5-43), truncated stresscopin 1 with 4-amino-acid deletion; SCP1 (6-43), truncated stresscopin 1 with 5-amino-acid deletion; SCP1-NA-0.1, full-length stresscopin 1 devoid of amidation at the C-terminus (0.1 nM); SCP1-NA, full-length stresscopin 1 devoid of amidation at the C-terminus (1 nM); UCN, urocortin. […] Data are mean SEM (N=3).

CRH R2 = assay: Receptor binding assay, displacement of 125I-urocortin; conditions: 293T cells transfected with CRHR2 isoforms (FIGS. 3g, 3h)
Method: as §3
Receptor Binding assay. […] After 60 min incubation at 37° C., the cell-associated ligand was estimated following centrifugation and repeated washing. Radioactivity of samples was determined in a GENESYS-counter (Laboratory Technologies, Inc., Maple Park, Ill.).

recombinant CRHR1 = target: T3, recombinant CRHR1 (Homo sapiens, UniProt P34998); assay: cAMP production by 293T cells transfected with recombinant CRHR1; type: cell-based; conditions: 293T cells transiently transfected (FIG. 3e)
T3 construct: prolactin signal peptide (N); expressed in transfected cells; host or cells: human 293T cells, pcDNA3.1/Zeo vector
T3 sequence (P34998 24-415): T2 sequence (P34998 24-415)
Method: as §5

Chain of recombinant CRHR2 (Q13324 35-411 limits assumed): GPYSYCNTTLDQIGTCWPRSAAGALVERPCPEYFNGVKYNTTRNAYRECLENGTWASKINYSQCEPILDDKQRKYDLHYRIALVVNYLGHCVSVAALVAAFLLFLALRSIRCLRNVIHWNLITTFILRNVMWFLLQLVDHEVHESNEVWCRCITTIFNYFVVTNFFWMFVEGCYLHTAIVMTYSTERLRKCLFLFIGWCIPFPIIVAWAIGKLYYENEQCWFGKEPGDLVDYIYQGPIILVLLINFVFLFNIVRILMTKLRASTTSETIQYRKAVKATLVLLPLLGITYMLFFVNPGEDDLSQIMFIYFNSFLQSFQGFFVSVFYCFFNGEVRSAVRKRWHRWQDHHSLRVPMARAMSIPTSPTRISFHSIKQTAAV
T1 sequence (P47866 1-431 isoform P47866-2): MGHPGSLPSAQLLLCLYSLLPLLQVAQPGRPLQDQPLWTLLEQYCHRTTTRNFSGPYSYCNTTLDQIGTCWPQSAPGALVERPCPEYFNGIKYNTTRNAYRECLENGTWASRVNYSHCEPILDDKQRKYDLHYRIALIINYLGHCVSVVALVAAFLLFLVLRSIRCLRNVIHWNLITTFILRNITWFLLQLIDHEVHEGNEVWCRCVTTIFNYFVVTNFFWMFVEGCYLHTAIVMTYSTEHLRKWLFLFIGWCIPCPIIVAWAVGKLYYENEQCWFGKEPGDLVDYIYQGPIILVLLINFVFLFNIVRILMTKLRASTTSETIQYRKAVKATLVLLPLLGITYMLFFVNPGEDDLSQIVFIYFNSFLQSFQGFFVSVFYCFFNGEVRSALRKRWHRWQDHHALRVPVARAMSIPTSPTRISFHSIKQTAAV

| Substance | ACTH release in vitro [1] | heat-induced edema formation ([2]; 20 nmoles/kg) | cAMP production mediated by recombinant CRHR2 (recombinant CRHR2) | ACTH release in vivo [3] | cumulative food intake (fasting mice) | cAMP production [4] | gastric emptying activity [5] | reduction in ability to stimulate cAMP production (recombinant CRHR2; compared to amidated stresscopin 1) [fold] | higher potency as compared to stresscopin 2 and the pufferfish peptide (recombinant CRHR2; activation of type-2 CRH receptors, cAMP) [fold] | cAMP production [6] | Average body weight change/mouse (fasting mice; 20 nM) [grams] | Average food intake/mouse (fasting mice; 20 nM) [grams] | ability to bind CRHR2 (displacement of labeled urocortin) (CRH R2) | heat-induced edema formation ([2]; 100 nmoles/kg) | Average body weight change/mouse (fasting mice; 2 nM) [grams] | Average food intake/mouse (fasting mice; 2 nM) [grams] | cAMP production mediated by recombinant CRHR1 (recombinant CRHR1) |
| --- | --- | --- | --- | --- | --- | --- | --- | --- | --- | --- | --- | --- | --- | --- | --- | --- | --- |
| CRH: corticotropin releasing hormone, 41-amino acid peptide; purchased from Sigma Biochemicals [reference compound] | stimulated the release of ACTH | suppressed heat-induced edema formation | stimulated cAMP production | stimulated the release of ACTH | dose-dependently decreased food intake | stimulated cAMP production | suppressed gastric emptying activity | – | – | – | – | – | – | – | – | – | – |
| SCP1-NA: full-length stresscopin 1 devoid of amidation at the C-terminus (HPGSRIVLSLDVILGLLQILLEQARARAAREQATTNARILARV-OH) | – | – | – | – | – | – | – | > 50 | – | – | – | – | – | – | – | – | – |
| stresscopin 1: mature 43 amino acid peptide, SEQ ID NO:3, derived from a 112 amino acid precursor; selective CRH-R2 ligand (HPGSRIVLSLDVILGLLQILLEQARARAAREQATTNARILARV; listed as Homo sapiens) | – | suppressed heat-induced edema formation | potent agonists | – | dose-dependently decreased food intake | stimulated cAMP production | suppressed gastric emptying activity | – | > 10 | ineffective | 0.31 ± 0.14 | 0.185 | bind | – | – | – | – |
| stresscopin 2: mature peptide of 40 amino acids, SEQ ID NO:6, derived from a 161 amino acid precursor protein (TKFTLSLDVPTNIMNLLFNIAKAKNLRAQAAANAHLMAQI; listed as Homo sapiens) | – | – | potent agonists | – | dose-dependently decreased food intake | – | suppressed gastric emptying activity | – | – | – | 0.11 ± 0.1 | 0.152 | bind | suppressed heat-induced edema formation | −0.19 ± 0.24 | 0.176 | – |
| urocortin: 40 amino acid peptide, ligand for the CRH receptors; purchased from Sigma Biochemicals (DNPSLSIDLTFHLLRTLLELARTQSQRERAEQNRIIFDSV; ends and bridges not checked; UniProt P55089 83-122, looked up) [reference compound] | stimulated the release of ACTH | suppressed heat-induced edema formation | stimulated cAMP production | stimulated the release of ACTH | dose-dependently decreased food intake | stimulated cAMP production | suppressed gastric emptying activity | – | – | stimulated cAMP production | – | – | – | – | – | – | stimulated cAMP production |
